These results are taken from US6410792B1, “Amide derivatives and methods for using the same as selective neuropeptide Y receptor antagonists” (Bayer Corporation, priority 1997, dated 2002).

Test [1] concerns the target T1, Human NPY1 receptor (Homo sapiens, UniProt P25929).
T1 construct: host or cells: SK-N-MC cells
T1 sequence (P25929 1-384): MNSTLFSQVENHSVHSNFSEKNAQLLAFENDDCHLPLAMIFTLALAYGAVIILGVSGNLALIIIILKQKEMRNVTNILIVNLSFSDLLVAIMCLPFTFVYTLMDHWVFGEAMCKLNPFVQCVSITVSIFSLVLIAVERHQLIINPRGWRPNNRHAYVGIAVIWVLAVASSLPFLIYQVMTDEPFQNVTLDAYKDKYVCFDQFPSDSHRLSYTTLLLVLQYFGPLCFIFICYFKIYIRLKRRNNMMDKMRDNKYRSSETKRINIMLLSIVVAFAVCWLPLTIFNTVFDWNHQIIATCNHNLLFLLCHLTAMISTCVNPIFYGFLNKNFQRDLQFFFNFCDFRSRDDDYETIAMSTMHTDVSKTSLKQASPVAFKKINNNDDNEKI
Kind of test: Human NPY1 receptor binding assay ([125I]PYY, SK-N-MC cells). The essentials:
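Confluent SK-N-MC cells preincubated 30 min at room temperature in serum-free DMEM/25 mM HEPES pH 7.3 with BSA, bacitracin and PMSF, then incubated 3 h at room temperature with compound and ~50 pM [125I]PYY. Nonspecific binding defined with 1 μM NPY; bound radioactivity counted after Triton X-100 lysis.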

For test [2], the target named is T2, Y2 receptor (Homo sapiens, UniProt P49146).
T2 sequence (P49146 1-381): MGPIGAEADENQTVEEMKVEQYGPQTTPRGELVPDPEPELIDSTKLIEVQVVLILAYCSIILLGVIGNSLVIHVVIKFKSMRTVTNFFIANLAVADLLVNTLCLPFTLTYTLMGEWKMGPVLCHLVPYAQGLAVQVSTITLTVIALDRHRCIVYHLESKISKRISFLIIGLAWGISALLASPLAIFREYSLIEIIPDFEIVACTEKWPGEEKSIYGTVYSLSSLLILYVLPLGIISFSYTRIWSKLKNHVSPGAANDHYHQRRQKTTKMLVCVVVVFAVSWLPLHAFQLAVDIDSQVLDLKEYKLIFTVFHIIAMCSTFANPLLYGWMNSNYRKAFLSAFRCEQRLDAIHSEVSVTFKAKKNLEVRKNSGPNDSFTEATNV
Kind of test: Y2 receptor binding assay ([125I]PYY, membrane protein). To be noted: membrane protein, read-out: hNPY2 IC50. The essentials:
(§1)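 Filtration binding with membrane protein and drug dilution, 2 h at room temperature with mixing, radioactivity counted by gamma or scintillation. Y2: 25 pM [125I]PYY in Krebs-Ringer bicarbonate pH 7.4 with 0.01% BSA, nonspecific by 1 μM NPY. Y4/PP1: 50 pM [125I]hPP in HEPES-buffered saline pH 7.4 with protease inhibitors and 0.3% BSA, nonspecific by 1 μM hPP.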

The target of test [3] is human Y4/PP1 receptor (Homo sapiens, UniProt P50391). Description: Human Y4/PP1 receptor binding assay ([125I]human PP, membrane protein). The essentials:
as §1

Test [4] has as its target T3, Human NPY5 receptor (Homo sapiens, UniProt Q15761).
T3 sequence (Q15761 1-445): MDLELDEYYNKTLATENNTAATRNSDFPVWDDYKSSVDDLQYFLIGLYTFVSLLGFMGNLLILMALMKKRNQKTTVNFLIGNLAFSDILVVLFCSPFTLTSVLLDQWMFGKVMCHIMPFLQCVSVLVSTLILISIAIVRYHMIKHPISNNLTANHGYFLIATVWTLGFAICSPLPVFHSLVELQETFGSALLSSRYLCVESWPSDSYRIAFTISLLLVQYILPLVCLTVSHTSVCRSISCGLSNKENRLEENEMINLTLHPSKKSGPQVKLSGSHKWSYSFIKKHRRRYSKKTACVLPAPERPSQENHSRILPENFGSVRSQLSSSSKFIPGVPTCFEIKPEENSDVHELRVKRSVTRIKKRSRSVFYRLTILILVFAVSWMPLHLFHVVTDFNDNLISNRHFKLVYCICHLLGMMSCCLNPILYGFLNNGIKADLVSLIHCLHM
Description: Human NPY5 receptor binding assay ([125I]PYY, membrane protein). The essentials: (§2)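 Membrane protein was incubated with 75-100 pM porcine [125I]PYY and test compound for 2 hours at room temperature with constant mixing in pH 7.4 Tris buffer containing NaCl, KCl, CaCl2, MgSO4, 0.1% BSA and bacitracin. Nonspecific binding was defined with 1 μM PYY. Bound radioactivity was counted after filtration.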

Test [5] addresses T4, Rat NPY5 receptor (Rattus norvegicus, UniProt Q63634).
T4 sequence (Q63634 1-445): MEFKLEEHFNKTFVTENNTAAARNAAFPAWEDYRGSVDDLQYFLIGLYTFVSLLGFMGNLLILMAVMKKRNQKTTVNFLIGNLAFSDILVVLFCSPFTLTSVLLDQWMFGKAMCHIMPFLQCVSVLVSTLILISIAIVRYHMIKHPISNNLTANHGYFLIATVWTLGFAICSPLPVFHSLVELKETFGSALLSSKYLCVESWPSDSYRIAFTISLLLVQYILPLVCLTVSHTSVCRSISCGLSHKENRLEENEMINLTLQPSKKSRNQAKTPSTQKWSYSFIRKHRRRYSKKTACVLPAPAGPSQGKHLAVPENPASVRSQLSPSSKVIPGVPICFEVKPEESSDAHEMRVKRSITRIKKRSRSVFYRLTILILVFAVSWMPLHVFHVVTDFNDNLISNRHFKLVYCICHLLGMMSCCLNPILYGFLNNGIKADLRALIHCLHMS
Description: Rat NPY5 receptor binding assay ([125I]PYY, membrane protein). In outline:
as §2

In test [6] the target is T4, Rat NPY5 receptor. Description: Rat NPY5 cyclase assay (in vitro functional assay, forskolin-stimulated adenylate cyclase, cAMP). The test is classed as cell-based. The conditions noted are these: percentage of forskolin-stimulated adenylate cyclase; for activity at 10 µM: 20 min, read-out: rNPY5 % FSAC (10 μM). As to the method: D. Rat NYP5 Cyclase Assay (In Vitro Functional Assay)
Cells stably expressing the rat NPY5 receptor are resuspended in serum-free DMEM containing 10 mM HEPES (pH 7.4) and 1 mM isobutylmethylxanthine (IBMX). […] forskolin and drug dilution are then added to the cells. After a 20 minute incubation of the samples at 37° C, the assay is stopped by placing the samples in boiling water for 3 minutes. The cAMP produced in each sample is quantitated with a radioimmunoassay kit (NEN DuPont). Data are expressed as a percentage of forskolin-stimulated adenylate cyclase.

The mark [7] stands for this setting: [125I]PYY, SK-N-MC cells, read-out: hNPYI IC50.
The mark [8] stands for this setting: [125I]human PP, membrane protein, read-out: hNPY4 IC50.
[9] abbreviates: [125I]PYY, read-out: hNPY5 IC50.
Setting [10] is: [125I]PYY, read-out: rNPY5 IC50.

SMILES strings stand for the structures. Counter-ions that a name gives are not always drawn. Like-named read-outs stand apart in the source and are kept apart here.

Chain of human Y4/PP1 receptor (P50391 whole entry): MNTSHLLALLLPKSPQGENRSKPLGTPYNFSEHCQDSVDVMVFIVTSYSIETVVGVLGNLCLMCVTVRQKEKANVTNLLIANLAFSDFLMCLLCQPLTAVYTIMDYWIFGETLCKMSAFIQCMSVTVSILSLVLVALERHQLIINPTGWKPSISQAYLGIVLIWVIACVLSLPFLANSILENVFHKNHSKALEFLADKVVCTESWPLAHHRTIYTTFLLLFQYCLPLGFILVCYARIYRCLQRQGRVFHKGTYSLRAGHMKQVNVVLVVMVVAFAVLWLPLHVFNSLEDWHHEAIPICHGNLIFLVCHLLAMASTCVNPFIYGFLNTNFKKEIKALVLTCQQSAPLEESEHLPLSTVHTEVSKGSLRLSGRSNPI

Take `CCc1cc(Br)c(NC(=O)CN2CCC(n3c(=O)[nH]c4ccccc43)CC2)c(Br)c1` [Compound 330, N-(2,6-Dibromo-4-ethyl-phenyl)-2-[4-(2-oxo-2,3-dihydrobenzoimidazol-1-yl)-piperidin-1-yl]-acetamide, reference compound]: the half-inhibitory concentration (IC50) in test [1] (setting [7]) is more than 5 µM; in test [2] ([125I]PYY) it was more than 5 µM; in test [3] (setting [8]), more than 5 µM; in test [4] (setting [9]) it was 0.44 µM; in test [5] (setting [10]), 0.26 µM. In test [6] (10 μM), the activity at 10 µM came out at 99%.
On to `O=C(CN1CCCC1C(O)(c1ccccc1)c1ccccc1)Nc1ccc(C2CCCCC2)cc1` (stereo not shown) [Compound 296, N-(4-Cyclohexyl-phenyl)-2-[2-(hydroxy-diphenyl-methyl)-pyrrolidin-1-yl]-acetamide; compound with oxalic acid], for which the half-maximal inhibitory concentration (IC50) is more than 5 µM in test [1] (setting [7]); more than 5 µM in test [2] ([125I]PYY); more than 5 µM in test [3] (setting [8]); 0.048 µM in test [4] (setting [9]); 0.043 µM in test [5] (setting [10]). Moreover, the activity at 10 µM in test [6] (10 μM) was 98%.
For the compound `O=C(CN1CCN(c2ccccc2Cl)CC1)Nc1ccc(C2CCCCC2)cc1.O=C(O)C(=O)O` [Compound 299], the half-maximal inhibitory concentration (IC50) is more than 5 µM in test [1] (setting [7]); more than 5 µM in test [2] ([125I]PYY); more than 5 µM in test [3] (setting [8]); 0.14 µM in test [4] (setting [9]); 0.16 µM in test [5] (setting [10]). For the same compound, the “rNPY5 % FSAC (10 μM)” value in test [6] (10 μM) amounted to 103%.
With `N#CC1(c2ccccc2)CCN(CC(=O)Nc2ccc(C3CCCCC3)cc2)CC1` [Compound 295, 2-(4-Cyano-4-phenyl-piperidin-1-yl)-N-(4-cyclohexyl-phenyl)-acetamide; hydrochloride], the IC50 in test [1] is more than 5 µM; in test [2] ([125I]PYY) it was more than 5 µM; in test [3] it was more than 5 µM; in test [4] (setting [9]), 0.0047 µM; in test [5] (rNPY5 IC50, [125I]PYY), 0.0045 µM. Besides, in test [6] (10 μM), the activity at 10 µM was found to be 101%.
`NC(=O)C1CCCN1CC(=O)Nc1ccc(C2CCCCC2)cc1` (stereo not shown) [Compound 297, 1-[(4-Cyclohexyl-phenylcarbamoyl)-methyl]-pyrrolidin-2-carboxylic acid amide; hydrochloride]: the concentration for half-maximal inhibition (IC50) in test [1] (setting [7]) is more than 5 µM; in test [2] ([125I]PYY), more than 5 µM; in test [3] (setting [8]), more than 5 µM; in test [4] (setting [9]) it was 0.032 µM; in test [5] (setting [10]), 0.045 µM. In test [6] (10 μM), the activity at 10 µM is 103%.
For the compound `CNC1(C(N)=O)CCN(CC(=O)Nc2ccc(C3CCCCC3)cc2)CC1` [Compound 30, 1-[(4-Cyclohexyl-phenylcarbamoyl)-methyl]-4-methylamino-piperidin-4-carboxylic acid amide], the 50% inhibitory concentration (IC50) in test [2] ([125I]PYY binding) is more than 5 µM; in test [4] ([125I]PYY binding, read-out: hNPY5 IC50), 0.06 µM; in test [5] ([125I]PYY binding, read-out: rNPY5 IC50), 0.013 µM. In addition, the activity at 10 µM in test [6] (compound at 10 μM) was 107%.
In the case of `Cc1ccc(OC(=O)c2ccc(NC(=O)CN3CCC(n4c(=O)[nH]c5ccccc54)CC3)cc2)cc1` [Compound 264, 4-{2-[4-(2-Oxo-2,3-dihydro-benzoimidazol-1-yl)-piperidin-1-yl]-acetylamino}-benzoic acid P-tolyl ester; hydrochloride], the half-inhibitory concentration (IC50) in test [2] ([125I]PYY) was more than 5 µM; in test [3] (setting [8]) it was more than 5 µM; in test [4] (setting [9]), 0.18 µM; in test [5] (setting [10]), 0.1 µM. Also, the activity at 10 µM in test [6] (10 μM) came to 139%.
For `O=C(CN1CCC(n2c(=O)[nH]c3ccccc32)CC1)Nc1ccc([N+](=O)[O-])c(Cl)c1` [Compound 357, N-(3-Chloro-4-nitro-phenyl)-2-[4-(2-oxo-2,3-dihydro-benzoimidazol-1-yl)-piperidin-1-yl]-acetamide, reference compound], the IC50 in test [1] (setting [7]) was more than 5 µM; in test [2] ([125I]PYY), more than 5 µM; in test [3] (setting [8]), more than 5 µM; in test [4] (setting [9]), 0.239 µM; in test [5] (setting [10]) it was 0.229 µM. For the same compound, in test [6] (10 μM), the activity at 10 µM amounted to 112%.
`O=C(CN1CCC(O)(c2ccccc2)CC1)Nc1ccc(C2CCCCC2)cc1` [Compound 26, N-(4-Cyclohexyl-phenyl)-2-(4-hydroxy-4-phenyl-piperidin-1-yl)-acetamide]: the IC50 was more than 5 µM in test [2] ([125I]PYY binding); 0.093 µM in test [4] (hNPY5 IC50, [125I]PYY binding); 0.037 µM in test [5] (rNPY5 IC50, [125I]PYY binding). The activity at 10 µM in test [6] (compound at 10 μM) worked out at 111%.
Consider `CCOc1ccc(NC(=O)CN2CCC(n3c(=O)[nH]c4ccccc43)CC2)c2ccccc12` [Compound 346, N-(4-Ethoxy-naphthalen-1-yl)-2-[4-(2-oxo-2,3-dihydro-benzoimidazol-1-yl)-piperidin-1-yl]-acetamide, reference compound], for which the IC50 is more than 5 µM in test [1] (setting [7]); more than 5 µM in test [2] ([125I]PYY); more than 5 µM in test [3] (setting [8]); 0.081 µM in test [4] (setting [9]); 0.063 µM in test [5] (setting [10]). For the same compound, the activity at 10 µM in test [6] (10 μM) was 105%.
Regarding `CCCOC1(c2ccccc2)CCN(CC(=O)Nc2ccc(C3CCCCC3)cc2)CC1` [Compound 294, N-(4-Cyclohexyl-phenyl)-2-(4-phenyl-4-propoxy-piperidin-1-yl)-acetamide; hydrochloride], the concentration for half-maximal inhibition (IC50) is more than 5 µM in test [1] (setting [7]); more than 5 µM in test [2] ([125I]PYY); more than 5 µM in test [3] (setting [8]); 0.051 µM in test [4] (hNPY5 IC50, [125I]PYY); 0.05 µM in test [5] (rNPY5 IC50, [125I]PYY). Also, in test [6] (10 μM), the activity at 10 µM came to 101%.
In the case of `O=C(CN1CCC(n2c(=O)[nH]c3ccccc32)CC1)Nc1ccc(Br)c(Cl)c1` [Compound 342, N-(4-Bromo-3-chloro-phenyl)-2-[4-(2-oxo-2,3-dihydro-benzoimidazol-1-yl)-piperidin-1-yl]-acetamide, reference compound], the half-inhibitory concentration (IC50) is more than 5 µM in test [1] (setting [7]); more than 5 µM in test [2] ([125I]PYY); more than 5 µM in test [3] (setting [8]); 0.276 µM in test [4] (setting [9]); 0.37 µM in test [5] (setting [10]). Besides, the activity at 10 µM in test [6] (10 μM) was found to be 105%.
